Measured values: publication PMC9610999, “Itraconazole-Induced Increases in Gilteritinib Exposure Are Mediated by CYP3A and OATP1B” (Molecules, 2022)
Where two headings read alike, the source gives them in different places.

Experiments:
[1] = target: T1, human OATP1B1 (SLCO1B1) (Homo sapiens, UniProt Q9Y6L6); experiment: Transport inhibition assay: EβG uptake in OATP1B1 overexpressing HEK293 cells; format: cell-based
T1 construct: expressed in transfected cells; host or cells: HEK293
T1 sequence (Q9Y6L6 1-691): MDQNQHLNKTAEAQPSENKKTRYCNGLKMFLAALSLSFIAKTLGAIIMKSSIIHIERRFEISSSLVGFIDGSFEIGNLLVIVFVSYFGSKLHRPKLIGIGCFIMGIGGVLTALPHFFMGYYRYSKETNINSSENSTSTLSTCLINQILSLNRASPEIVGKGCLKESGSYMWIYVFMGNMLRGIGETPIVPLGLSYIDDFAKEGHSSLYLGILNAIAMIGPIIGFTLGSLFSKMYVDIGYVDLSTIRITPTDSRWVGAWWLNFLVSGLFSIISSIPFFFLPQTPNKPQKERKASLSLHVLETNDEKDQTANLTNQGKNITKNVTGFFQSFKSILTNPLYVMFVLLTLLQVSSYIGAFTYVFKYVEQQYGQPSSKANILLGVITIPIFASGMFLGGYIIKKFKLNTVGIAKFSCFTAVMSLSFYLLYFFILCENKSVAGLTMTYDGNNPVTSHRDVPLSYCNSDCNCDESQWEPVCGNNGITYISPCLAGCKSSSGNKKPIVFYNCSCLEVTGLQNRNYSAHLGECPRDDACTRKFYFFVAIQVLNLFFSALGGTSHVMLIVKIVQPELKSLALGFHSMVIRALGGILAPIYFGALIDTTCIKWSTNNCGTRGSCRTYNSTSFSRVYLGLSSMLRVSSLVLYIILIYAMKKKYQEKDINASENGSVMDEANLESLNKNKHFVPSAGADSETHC
Procedure: Human embryonic kidney (HEK293) cells stably transfected with human OATP1B1 (SLCO1B1) cDNA, or an empty control vector were established and cultured as previously described. Cells were maintained in DMEM supplemented with 10% FBS, 50 µg/mL hygromycin B, 15 µg/mL blasticidin, and maintained in a humidified incubator at 37 °C with 5% CO2. Prior to plating, 24-well tissue culture plates (Thermo Fisher Scientific) were coated with poly-d-lysine. Seeding media was prepared using phenol red-free DMEM with 10% FBS with no selection agents. To the seeding media, […] of doxycycline was added to induce expression of OATP1B1.
OATP1B1 overexpressing cells and vector control cells were plated in 24-well tissue culture plates at a volume of 0.5 mL (containing 2 × 10^6 cells/mL) per well. Plates were returned to an incubator at 37 °C and transport assays were conducted 24 h later. Transport activity was measured using EβG, a prototypical substrate of OATP1B1. Experiments were conducted using phenol red- and serum-free DMEM. Intracellular levels of total radioactivity originating from EβG were assessed by liquid scintillation counting. The resulting counts were normalized to total protein levels as determined by a Pierce protein assay. The influence of gilteritinib, itraconazole, keto-itraconazole, or hydroxy-itraconazole on OATP1B1-mediated transport was assessed following a 15 min pre-incubation at various concentrations of test inhibitors followed by co-incubation of test inhibitors with EβG. Inhibition of transport activity by gilteritinib was determined by comparing the accumulation of EβG in the presence of gilteritinib, itraconazole, keto-itraconazole, or hydroxy-itraconazole to that of EβG in the presence of only the control vehicle, DMSO. The final concentration of DMSO in media was less than 0.2% in all in vitro experiments.

[2] = target: T2, OATP1B1 (Homo sapiens, UniProt Q9Y6L6); experiment: Competitive counterflow assay with ACE in OATP1B1 overexpressing HEK293 cells; format: cell-based; details: gilteritinib 0.1–20 μM, 5 μM ACE, normalized to ACE alone
T2 construct: expressed in transfected cells; host or cells: HEK293
T2 sequence (Q9Y6L6 1-691): T1 sequence (Q9Y6L6 1-691)
Procedure: OATP1B1 overexpressing cells or vector control were seeded in 96-well plates in 200 μL DMEM and incubated for 24 h. The medium was aspirated off and the cells were washed three times with PBS at room temperature. The cells were then treated with 100 μL of 5 μM ACE and incubated at 37 °C for 15 min in uptake buffer. The supernatant was aspirated off and 100 μL of 5 μM ACE alone or in combination with DMSO or gilteritinib (0.1–20 μM) in uptake buffer were added to the cells. The plates were further incubated for 20 min at 37 °C. The supernatant was removed, and the cells were washed three times with 200 μL of ice-cold PBS. Lastly, 200 μL of 0.1 N NaOH was added to cells and incubated for 20 min at room temperature. Fluorescence was measured on a plate reader at excitation and emission wavelengths of 460 and 510 nm, respectively. The intracellular concentrations of ACE were calculated by comparison of fluorescence values observed with control samples incubated with ACE alone, which were set to 100%.

[3] = target: T2, OATP1B1; experiment: Washout assay: recovery of OATP1B1 function (EβG uptake); format: cell-based; details: within a 1-h period after 15 min treatment with gilteritinib 15 µM; 0.2 μM EβG
Procedure: OATP1B1 overexpressing cells and vector control cells were plated in 12-well plates 24 h prior to experimentation. Cells were then washed with warm PBS and pre-incubated for 15 min with 0.5 mL DMSO or gilteritinib (15 μM) in DMEM at 37 °C. After pre-incubation, the supernatant was removed, and cells were washed with PBS. Compound-free medium was then added, and the cells were further incubated for periods of 15, 30, and 60 min. Next, the medium was removed, and cells were incubated with 0.5 mL of 0.2 μM EβG for 15 min. After that, the medium was removed and the cells were washed three times with ice-cold PBS, and 1 N NaOH was added to the wells to stop the rection. The next day 1 M HCL was added to each well and substrate concentrations were assessed using liquid scintillation counting. The resulting data were normalized to total protein as determined by a Pierce protein assay.

[4] = parameters: method as in PMID 32546970; details: rats; cited from earlier work
[5] = cited from earlier work
[6] = human, in vivo; cited from earlier work

CCc1nc(C(N)=O)c(Nc2ccc(N3CCC(N4CCN(C)CC4)CC3)c(OC)c2)nc1NC1CCOCC1 [Gilteritinib]
Mechanism of inhibition of OATP1B transport of EβG ([1]; Dixon plot): noncompetitively inhibits | IC50 ([1]; OATP1B1 overexpressing HEK293 cells vs vector control, radiolabeled EβG, 15 min pre-incubation, read-out: IC50, inhibition of OATP1B1-mediated cellular accumulation of EβG): 2230 nM | Ki ([1]; gilteritinib 0.3–8.3 µM, EβG 0.2, 2, 20 µM, estimated, read-out: Ki (inhibition constant), EβG uptake by OATP1B1, Dixon plot): 1600 nM | Effect on fluorescent signal of ACE in cells (competitive counterflow; transported substrate) [2]: decreased the fluorescent signal in cells in a concentration-dependent manner | OATP1B1 transport recovered after washout [3]: 75% | Increase in gilteritinib exposure by itraconazole [4]: 1.4 fold | Maximum tolerated dose ([5]; ref 4): 300 mg | Maximum tolerated dose ([5]; ref 29): 200 mg | Increase in gilteritinib exposure when co-administered with itraconazole [6]: 2.2 fold
